# Entries after “also recorded” stand apart in the source; their conditions may differ.
# How the values were obtained:
# [1] = system: human prostate tumors (22Rv1 cells); test: Human prostate tumor model, subcutaneous 22Rv1 tumors in nude mice; assay type: in vivo, athymic nude mice
# Experimental: Example 4 A/B: Human cancer cells are subcutaneously (s.c.) implanted (1×10^6) into 4- to 6-week-old athymic nude mice (National Cancer Institute). When tumor sizes in the mice reach between 1 and 6 mm in diameter as assessed by in vivo bioluminescence imaging or by palpation, mice are injected once or multiple times i.p. with the drug, e.g. DZ3a, DHA or o THAD. For mice bearing 22Rv1 tumors, DZ3a (2, 4, 8 and 16 mg/kg) or DHA (e.g. 4.7 mg/kg) is injected twice a week for 5.5 weeks. Whole body optical imaging is taken at 24 hours or as indicated using a Kodak Imaging Station 4000 MM equipped with fluorescent filter sets (excitation/emission, 800:850 nm), with a field of view of 120 mm in diameter, a frequency rate for NIR excitation light of 2 mW/cm^2, and the following camera settings; maximal gain, 2-2 binning, 1,024×1,024 pixel resolution, exposure time of 5 seconds. Live mice are alternatively/additionally imaged by an Olympus OV100 Whole Mouse Imaging System (excitation, 762 nm; emission, 800 nm; Olympus Corp.), containing a MT-20 light source (Olympus Biosystems) and DP70 CCD camera (Olympus). Before imaging, mice are anesthetized with isoflurane (2.5 units), and maintained in an anesthetized state during imaging. Alternatively, a THAD may be compared to DZ3a. […]
# C4-2 MDVR cells = test: JC-1 staining, mitochondrial membrane potential by flow cytometry; assay type: cell-based, human; conditions: 5 uM, 16 h
# Experimental: Example 5D: JC-1 staining and measuring JC-1 fluorescence is performed by flow cytometry to detect the ratio of green and red fluorescence. C4-2 MDVR cells are treated with vehicle (negative control), DHA (5 uM), and DZ-003 (5 uM) for 16 h, followed by JC-1 staining (2 uM) at 37° C. for 30 min, to determine the mitochondrial membrane potential by flow cytometry where JC-1 remains as a monomer in the cytosol that emits green fluorescence as an indication of depolarized membrane potential, and JC-1 forms aggregates in intact mitochondria that emits red fluorescence. […] Preliminary experiments indicate that the THAD as described herein may provide a similar or increased effect.
# [2] = system: mitochondria and lysosomes of C4-2B MDVR cells; test: Confocal microscopy of Mitotracker/Lysotracker staining (subcellular localization); assay type: cell-based, human
# Experimental: Subcellular localization (mitochondria, lysosomes) may be performed as follows: Uptake of DZ3a, THAD, controls or other dyes into mitochondria and lysosomes of cancer cells is determined by virtue of each compound constituting a dye or comprising a dye moiety. Cells are plated on live-cell imaging chambers (World Precision Instrument) overnight. Cells are exposed to the dyes at different concentrations, and dye uptake is evaluated by a Perkin-Elmer Ultraview ERS spinning disc confocal microscope mounted on a Zeiss Axiovert 200 m inverted microscope equipped with a 37° C. stage warmer, incubator, and constant CO2 perfusion. A 60× or 100× Zeiss oil objective (numerical aperture, 1.4) is used for live cell images, and a Z-stack is created using the attached piezoelectric z-stepper motor. The 633-nm laser line of an […] (set at 60% power) is used to excite the dye. Light emission at 650 nm is detected and found to correlate directly with the dye concentrations in the cells. For comparative studies, the exposure time and laser intensity are kept identical for accurate intensity measurements. Pixel intensity is quantified using Metamorph 6.1 (Universal Imaging), and the mean pixel intensity is generated as gray level using the Region Statistics feature on the software. […]
# C4-2B MDVR cells = test: Seahorse XF mitochondrial function (OCR/ECAR); assay type: cell-based, human; conditions: 5 uM
# Experimental: Example 5 C: To determine mitochondrial function of cancer cells (here C4-2B MDVR), the cells are treated with vehicle, DZ (5 uM), DHA (5 uM), and DZ-003 (5 uM) over 12 hours, and the oxygen consumption rate (OCR) from respiration and extracellular acidification rate (ECAR) from glycolysis of the live cells is determined in a metabolic chamber in a 24-well plate format using a Seahorse XF analyzer (Seahorse XFe24, Agilent, Calif.). Reagents (drugs/controls) are added to the wells just before start of the recording at time 0, and the effect of the drugs on the basal mitochondrial function is recorded by the analyzer for about 12 hours (720 minutes). All reagents used are Agilent reagents. Cells are seeded and cultured in Seahorse XF RPMI Medium, pH 7.4. The seeding rate is 8×10^5 for the cells to reach about 90% confluency within about 24 hours when the analysis is started. The protocol is essentially performed as per the standard protocol of the manufacturer, removing the medium, washing the cells once with XF Real-Time ATP Rate Assay Medium, then starting the measurement as per the instrument's pre-programming and subsequent real-time measurements of OCAR/ECAR. Preliminary experiments indicate that the THAD as described herein may have an increased effect compared to DZ3a.
# MDVR cells [3] = test: Monobromobimane (mBBr) staining, cellular GSH levels; assay type: cell-based, human; conditions: 8 h, listed as DZ-003
# Experimental: Example 5G: Cancer cells (here MDVR) are treated with DZ1, DHA and/or a THAD (e.g. 6 uM each) for 8 h, followed by monobromobimane (mBBr) staining at 40 uM for 30 min at 37° C., and analyzed with flow cytometry to determine the cellular GSH levels. Flow cytometry analysis of mBBr fluorescence (green) is performed as described in example 5E above. Preliminary experiments indicate that the THAD as described herein may provide a similar or increased effect.
# MDVR cells [4] = test: C11-BODIPY (lipid peroxidation) and MitoSox (mitochondrial ROS) flow cytometry; assay type: cell-based, human; conditions: 8 h
# Experimental: Example 5F: Cancer cells (here MDVR) are treated with DZ1, DHA and DZ-003 for 8 h, followed by C11-BODIPY staining for 30 min at 37° C. (lipid peroxidation) or MitoSox staining for 10 min at 37° C. […] Flow cytometry analysis is performed as described in example 5E above. […] Preliminary experiments indicate that the THAD as described herein may provide a similar or increased effects.
smiles,measurement,setting,value
C[C@@H]1CC[C@H]2[C@@H](C)C(OC(=O)CCCCCN3/C(=C/C=C4\CCCC(/C=C/C5=[N+](CCCCS(=O)(=O)[O-])c6ccccc6C5(C)C)=C4Cl)C(C)(C)c4ccccc43)O[C@@H]3OC4(C)CC[C@@H]1[C@]32OO4 (stereo in doubt) [DZ3a],inhibition of tumor volume increase,"[1]; DZ-DHA-monoester 2 to 16 mg/kg, DHA 4.7 mg/kg, i.p. twice a week for 5.5 weeks, versus vehicle",similarly inhibit increase in tumor volume compared to the neg. control
same,"tumor inhibition, lowest dose versus higher doses",[1]; about 2 mg/kg versus higher doses up to 16 mg/kg,shows better tumor inhibition than other higher doses
same,mitochondrial membrane potential (JC-1 fluorescence),C4-2 MDVR cells,induces depolarization of mitochondrial membrane potential
same,co-localization with mitochondria and lysosomes,[2],co-localizes with mitochondria and lysosomes; also recorded: exclusive targeting to mitochondria and lysosomes
same,time at which lowering of OCR starts,C4-2B MDVR cells,≤ 250 min
same,time until which OCR continues to lower before sustained lowered OCR,C4-2B MDVR cells,about 500 minutes
same,lowering of OCR (in words),C4-2B MDVR cells; over 12 hours,can greatly lower the mitochondrial oxygen consumption rate
same,mitochondrial oxygen consumption rate (OCR) after treatment,"C4-2B MDVR cells; over 12 hours, from about 700-800 pmol/min",less than 300 pmol/min
same,cellular GSH levels (mBBr fluorescence),MDVR cells [3],decreases cellular antioxidant GSH levels; also recorded: Decreased cellular GSH levels
same,lipid peroxidation (C11-BODIPY fluorescence),MDVR cells [4],induces lipid peroxidation
